Results on 20 compounds are retold here after patent US11090304B2 (Amgen Inc., priority 2018, dated 2021).

The target in assay [1] is GDP-bound KRAS protein (aa 1-169), containing both G12C and C118A amino acid substitutions (Homo sapiens, UniProt P01116, C118A/G12C). In words: Coupled nucleotide exchange assay (SOS-mediated, AlphaScreen). Format: biochemical. Particulars: 5 min compound pre-incubation.
Assay [2] concerns Phosphorylation of ERK1/2 in MIA PaCa-2 cells. In words: Phospho-ERK1/2 MSD assay in MIA PaCa-2 cells. Format: cell-based. To be noted: Homo sapiens, MIA PaCa-2, 2 h, read-out: p-ERK IC50 (2 h; MIA PaCa-2), 2 h compound treatment. The gist of the method: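 MSD electrochemiluminescence readout of phospho-ERK1/2 in whole-cell lysates, IC50 by 4-parameter logistic fit. Compound titrations were applied for 2 or 4 h at 37 °C, 5% CO2, followed by 10 ng/mL EGF stimulation for 10 min before lysis.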

GDP-bound KRAS protein (aa 1-169), containing both G12C and C118A amino acid substitutions, sequence (P01116 1-169 isoform P01116-2 G12C/C118A): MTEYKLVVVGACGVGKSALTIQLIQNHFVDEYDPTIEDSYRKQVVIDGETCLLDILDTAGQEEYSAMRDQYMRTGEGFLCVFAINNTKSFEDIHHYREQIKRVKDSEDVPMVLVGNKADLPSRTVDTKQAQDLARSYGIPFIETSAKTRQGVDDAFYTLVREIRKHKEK

For `C=CC(=O)N1CCN(c2nc(=O)n(-c3ccccc3C(C)C)c3nc(-c4cc(OC(F)F)ccc4F)c(Cl)cc23)[C@@H](C)C1` [Example 54-51, 6-chloro-7-(5-(difluoromethoxy)-2-fluorophenyl)-4-((2S)-2-methyl-4-(2-propenoyl)-1-piperazinyl)-1-(2-(2-propanyl)phenyl)pyrido [2,3-d]pyrimidin-2(1H)-one], the “Coupled exchange IC50 (5 min)” value in assay [1] is 0.265 | nda μM. The IC50 in assay [2] came out at 204 nM.
For the compound `C=CC(=O)N1CCN(c2nc(=O)n(-c3nonc3C(C)C)c3nc(-c4c(O)cccc4F)c(Cl)cc23)[C@@H](C)C1` [Example 54-52, 6-chloro-7-(2-fluoro-6-hydroxyphenyl)-4-((2S)-2-methyl-4-(2-propenoyl)-1-piperazinyl)-1-(4-(2-propanyl)-1,2,5-oxadiazol-3-yl)pyrido[2,3-d]pyrimidin-2(1H)-one], the “Coupled exchange IC50 (5 min)” value in assay [1] is given as 0.445 | nda μM. In addition, the IC50 in assay [2] stood at 666 nM.
For the compound `C=CC(=O)N1CCN(c2nc(=O)n(-c3ncc(C#N)cc3CC)c3nc(-c4c(O)cccc4F)c(Cl)cc23)[C@@H](C)C1` [Example 54-53, 6-(6-chloro~7-(2-fluoro-6-hydroxyphenyl)-4-((2S)-2-methyl-4-(2-propenoyl)-1-piperazinyl)-2-oxopyrido[2,3-d]pyrimidin-1(2H)-yl)-5-ethyl-3-pyridine-carbonitrile], in assay [1], the “Coupled exchange IC50 (5 min)” value was 0.193 | nda μM. Further, in assay [2], the IC50 turned out to be 593 nM.
The matching figures for `C=CC(=O)N1CCN(c2nc(=O)n(-c3cncnc3C3(C)CC3)c3nc(-c4ccccc4F)c(Cl)cc23)[C@@H](C)C1` [Example 54-54, 6-chloro-7-(2-fluorophenyl)-1-(4-(1-methyl-cyclopropyl)-5-pyrimidinyl)-4-((2S)-2-methyl-4-(2-propenoyl)-1-piperazinyl) pyrido[2,3-d]pyrimidin-2(1H)-one]: 0.377 | nda μM and 360 nM.
For the compound `C=CC(=O)N1CCN(c2nc(=O)n(-c3cncnc3C3(C)CC3)c3nc(-c4c(O)cccc4F)c(Cl)cc23)[C@@H](C)C1` [Example 54-55, 6-chloro-7-(2-fluoro-6-hydroxyphenyl)-1-(4-(1-methyl-cyclopropyl)-5-pyrimidinyl)-4-((2S)-2-methyl-4-(2-propenoyl)-1-piperazinyl) pyrido[2,3-d]pyrimidin-2(1H)-one], the “Coupled exchange IC50 (5 min)” value in assay [1] is 0.133 | nda μM. Also, the IC50 in assay [2] came to 578 nM.
As for `C=CC(=O)N1CCN(c2nc(=O)n(-c3c(C)cnn3C(C)C)c3nc(-c4ccc(F)cc4F)c(Cl)cc23)[C@@H](C)C1` [Example 54-71, 6-chloro-7-(2,4-difluorophenyl)-1-(4-methyl-1-(2-propanyl)-1H-pyrazol-5-yl)-4-((2S)-2-methyl-4-(2-propenoyl)-1-piperazinyl) pyrido[2,3-d]pyrimidin-2(1H)-one], in assay [1], the “Coupled exchange IC50 (5 min)” value is reported as 0.174 | nda μM. Moreover, the IC50 in assay [2] was 164 nM.
In the case of `C=CC(=O)N1CCN(c2nc(=O)n(-c3c(C(C)C)n[nH]c3C(C)C)c3nc(-c4ccccc4F)c(Cl)cc23)[C@@H](C)C1` [Example 54-72, 6-chloro-1-(3,5-di(2-propanyl)-1H-pyrazol-4-yl)-7-(2-fluorophenyl)-4-((2S)-2-methyl-4-(2-propenoyl)-1-piperazinyl) pyrido[2,3-d]pyrimidin-2(1H)-one], the “Coupled exchange IC50 (5 min)” value in assay [1] was 0.108 | nda μM. Further, the 50% inhibitory concentration (IC50) in assay [2] turned out to be 183 nM.
Consider `C=CC(=O)N1CCN(c2nc(=O)n(-c3c(OC)cccc3C(C)C)c3nc(-c4c(O)cccc4F)c(Cl)cc23)[C@@H](C)C1` [Example 54-73, 6-chloro-7-(2-fluoro-6-hydroxy-phenyl)-1-(2-methoxy-6-(2-propanyl)phenyl)-4-((2S)-2-methyl-4-(2-propenoyl)-1-piperazinyl) pyrido[2,3-d]pyrimidin-2(1H)-one], for which the “Coupled exchange IC50 (5 min)” value in assay [1] was 0.062 | nda μM. The IC50 in assay [2] was found to be 64 nM.
For the compound `C=CC(=O)N1CCN(c2nc(=O)n(-c3ccccc3-c3ccccc3)c3nc(-c4c(O)cccc4F)c(Cl)cc23)[C@@H](C)C1` [Example 54-74, 1-([biphenyl]-2-yl)-6-chloro-7-(2-fluoro-6-hydroxyphenyl)-4-((2S)-2-methyl-4-(2-propenoyl)-1-piperazinyl) pyrido[2,3-d]pyrimidin-2(1H)-one], in assay [1], the “Coupled exchange IC50 (5 min)” value is 0.582 | nda μM. Moreover, the IC50 in assay [2] was 926 nM.
Turning to `C=CC(=O)N1CCN(c2nc(=O)n(-c3ccccc3C(C)C)c3nc(-c4ccc(F)cc4O)c(Cl)cc23)[C@@H](C)C1` [Example 54-77, 6-chloro-7-(4-fluoro-2-hydroxy-phenyl)-4-((2S)-2-methyl-4-(2-propenoyl)-1-piperazinyl)-1-(2-(2-propanyl)phenyl)pyrido [2,3-d]pyrimidin-2(1H)-one], the “Coupled exchange IC50 (5 min)” value in assay [1] is 0.218 | nda μM. Besides, the IC50 in assay [2] was determined as 158 nM.
For `C=CC(=O)N1CCN(c2nc(=O)n(-c3ccccc3C(C)C)c3nc(-c4cc(F)ccc4O)c(Cl)cc23)[C@@H](C)C1` [Example 54-78, 6-chloro-7-(5-fluoro-2-hydroxyphenyl)-4-((2S)-2-methyl-4-(2-propenoyl)-1-piperazinyl)-1-(2-(2-propanyl)phenyl)pyrido [2,3-d]pyrimidin-2(1H)-one], the “Coupled exchange IC50 (5 min)” value in assay [1] is listed as 0.326 | nda μM. In addition, the IC50 in assay [2] was found to be 171 nM.
As to `C=CC(=O)N1CCN(c2nc(=O)n(-c3ccccc3C(C)C)c3nc(-c4c(O)cccc4Cl)c(Cl)cc23)[C@@H](C)C1` [Example 54-79, 6-chloro-7-(2-chloro-6-hydroxy-phenyl)-4-((2S)-2-methyl-4-(2-propenoyl)-1-piperazinyl)-1-(2-(2-propanyl)phenyl)pyrido [2,3-d]pyrimidin-2(1H)-one], the “Coupled exchange IC50 (5 min)” value in assay [1] is given as 0.072 | nda μM. Also, the IC50 in assay [2] came to 98 nM.
Turning to `C=CC(=O)N1CCN(c2nc(=O)n(-c3ccccc3C(C)C)c3nc(-c4cc(OC)ccc4Cl)c(Cl)cc23)[C@@H](C)C1` [Example 54-89, 6-chloro-7-(2-chloro-5-methoxy-phenyl)-4-((2S)-2-methyl-4-(2-propenoyl)-1-piperazinyl)-1-(2-(2-propanyl)phenyl)pyrido [2,3-d]pyrimidin-2(1H)-one], the “Coupled exchange IC50 (5 min)” value in assay [1] is 0.271 | nda μM. The IC50 in assay [2] turned out to be 212 nM.
The matching figures for `C=CC(=O)N1CCN(c2nc(=O)n(-c3ccccc3C(C)C)c3nc(-c4cc(O)ccc4Cl)c(Cl)cc23)[C@@H](C)C1` [Example 54-90, 6-chloro-7-(2-chloro-5-hydroxy-phenyl)-4-((2S)-2-methyl-4-(2-propenoyl)-1-piperazinyl)-1-(2-(2-propanyl)phenyl)pyrido [2,3-d]pyrimidin-2(1H)-one]: 0.105 | nda μM and 121 nM.
On to `C=CC(=O)N1CCN(c2nc(=O)n(-c3ccccc3C(C)C)c3nc(-c4cc(O)cc(Cl)c4Cl)c(Cl)cc23)[C@@H](C)C1` [Example 54-91, 6-chloro-7-(2,3-dichloro-5-hydroxy-phenyl)-4-((2S)-2-methyl-4-(2-propenoyl)-1-piperazinyl)-1-(2-(2-propanyl)phenyl)pyrido [2,3-d]pyrimidin-2(1H)-one], for which the “Coupled exchange IC50 (5 min)” value in assay [1] is reported as 0.033 | nda μM. In assay [2], the IC50 amounted to 39 nM.
The matching figures for `C=CC(=O)N1CCN(c2nc(=O)n(-c3ccccc3C(C)C)c3nc(-c4cc(N)ncc4Cl)c(Cl)cc23)[C@@H](C)C1` [Example 54-95, 7-(2-amino-5-chloro-4-pyridinyl)-6-chloro-4-((2S)-2-methyl-4-(2-propenoyl)-1-piperazinyl)-1-(2-(2-propanyl)phenyl)pyrido [2,3-d]pyrimidin-2(1H)-one]: 0.756 | nda μM and 821 nM.
With `C=CC(=O)N1CCN(c2nc(=O)n(-c3ccccc3C(C)C)c3nc(-c4cccnc4N)c(Cl)cc23)[C@@H](C)C1` [Example 54-96, 7-(2-amino-3-pyridinyl)-6-chloro-4-((2S)-2-methyl-4-(2-propenoyl)-1-piperazinyl)-1-(2-(2-propanyl)phenyl)pyrido [2,3-d]pyrimidin-2(1H)-one], the “Coupled exchange IC50 (5 min)” value in assay [1] is given as 0.676 | nda μM. Also, the IC50 in assay [2] was found to be 363 nM.
Turning to `C=CC(=O)N1CCN(c2nc(=O)n(-c3ccccc3C3(C)CC3)c3nc(-c4c(O)cccc4F)c(Cl)cc23)[C@@H](C)C1` [Example 54-97, 6-chloro-7-(2-fluoro-6-hydroxyphenyl)-1-(2-(1-methylcyclopropyl)phenyl)-4-((2S)-2-methyl-4-(2-propenoyl)-1-piperazinyl) pyrido[2,3-d]pyrimidin-2(1H)-one], in assay [1], the “Coupled exchange IC50 (5 min)” value is given as 0.128 | nda μM. Further, the IC50 in assay [2] amounted to 256 nM.
Take `C=CC(=O)N1CCN(c2nc(=O)n(-c3ccccc3C3(C)CC3)c3nc(-c4ccccc4F)c(Cl)cc23)[C@@H](C)C1` [Example 54-99, 6-chloro-7-(2-fluorophenyl)-1-(2-(1-methylcyclopropyl)phenyl)-4-((2S)-2-methyl-4-(2-propenoyl)-1-piperazinyl) pyrido[2,3-d]pyrimidin-2(1H)-one]: the “Coupled exchange IC50 (5 min)” value in assay [1] is listed as 0.153 | nda μM. In addition, the IC50 in assay [2] was 294 nM.
Regarding `C=CC(=O)N1CCN(c2nc(=O)n(-c3ncccc3CC(C)C)c3nc(-c4c(O)cccc4F)c(Cl)cc23)[C@@H](C)C1` [Example 54-101, 6-chloro-7-(2-fluoro-6-hydroxyphenyl)-4-((2S)-2-methyl-4-(2-propenoyl)-1-piperazinyl)-1-(3-(2-methylpropyl)-2-pyridinyl) pyrido[2,3-d]pyrimidin-2(1H)-one], the “Coupled exchange IC50 (5 min)” value in assay [1] is recorded as 0.162 | nda μM. The IC50 in assay [2] amounted to 157 nM.
